Results on 1 compound are retold here after US4774238A, “Heterocyclic-methylene-penems” (Beecham Group plc, priority 1985, dated 1988).

The series in a line: Solubility of the penem free acid in water. Format: physicochemical.

Take `Cn1cc(/C=C2/C(=O)N3C(C(=O)O)=CS[C@H]23)nn1` [penem free acid, Crystalline (5R) (Z)-6-(1-Methyl-1,2,3-triazol-4-ylmethylene)penem-3-carboxylic acid]: the solubility in water result was “only sparingly soluble”.
